Experimental data reported in ChEMBL document CHEMBL1132796, “Multistep solution-phase parallel synthesis of spiperone analogues” (Bioorg Med Chem Lett, 2000).

Legend:
[1] = target: T1, 5-hydroxytryptamine receptor 2A (Homo sapiens, UniProt P28223); assay: Compound was evaluated for its binding against 5-hydroxytryptamine 2A receptor
[2] = target: T1, 5-hydroxytryptamine receptor 2A; assay: Compound was evaluated for its inverse agonist activity against 5-hydroxytryptamine 2A receptor; type: functional

T1 sequence (P28223 whole entry): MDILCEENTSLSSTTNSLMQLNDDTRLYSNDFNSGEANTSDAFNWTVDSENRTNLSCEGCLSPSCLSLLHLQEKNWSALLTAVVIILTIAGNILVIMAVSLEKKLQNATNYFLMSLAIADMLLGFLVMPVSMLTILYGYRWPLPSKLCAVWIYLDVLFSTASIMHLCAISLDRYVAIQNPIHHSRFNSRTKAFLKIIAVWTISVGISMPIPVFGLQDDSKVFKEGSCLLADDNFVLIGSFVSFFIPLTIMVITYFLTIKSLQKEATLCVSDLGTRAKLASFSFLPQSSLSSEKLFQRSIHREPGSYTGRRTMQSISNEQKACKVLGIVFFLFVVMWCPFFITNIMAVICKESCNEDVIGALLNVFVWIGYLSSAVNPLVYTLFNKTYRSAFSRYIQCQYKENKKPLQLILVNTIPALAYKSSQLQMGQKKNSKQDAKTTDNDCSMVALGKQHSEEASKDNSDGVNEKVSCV

Compound	Ki [1] [nM]	IC50 [2] [nM]
CCC(=O)N(C1CCCCCCC1)C1CCN(CCCOc2ccc(F)cc2)CC1	20	12.6
CC(C)NC(=O)N(C1CCCCCCC1)C1CCN(CCCOc2ccc(F)cc2)CC1	–	79.4
